Test results as given in patent US20260285850A1, “SUBSTITUTED OXAZOLIDINONES AND IMIDAZOLINONES AS HERBICIDES” (FMC CORPORATION, priority 2023, published 2026).

Columns and labels:
Type in all cases: in vivo
[1] = system: ducksalad (Heteranthera limosa); test: Test B flooded paddy test, visual plant response rating 0-100; conditions: 250 g ai/ha, Flood, applied to paddy water, evaluated after 13 days
Method in brief: (§1)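 Visual evaluation after 13 days. Water-applied treatment, 3 cm flood depth held constant, plants at 2-leaf stage at treatment.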

[2] = system: sedge, umbrella (small-flower umbrella sedge, Cyperus difformis); test: as above; conditions: 250 g ai/ha, Flood, applied to paddy water, evaluated after 13 days
Method in brief: as §1

[3] = system: barnyardgrass (Echinochloa crusgalli); test: as above; conditions: 250 g ai/ha, Flood, applied to paddy water, evaluated after 13 days
Method in brief: as §1

rice (Oryza sativa) = test: as above; conditions: 250 g ai/ha, Flood, applied to paddy water, evaluated after 13 days
Method in brief: as §1

[4] = system: barnyardgrass (Echinochloa crus-galli); test: Test A preemergence soil spray, visual injury rating 0-100; conditions: 10 days, 0 = no effect, 100 = complete control
Method in brief: (§2)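 Preemergence directed soil spray or postemergence spray (2-10 cm, 1-2 leaf); loam/sand mix; compound in non-phytotoxic solvent + surfactant. Greenhouse, 10 d. Visual injury vs untreated, 0 = none, 100 = complete control.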

[5] = system: oat, wild (wild oat, Avena fatua); test: as above; conditions: 10 days, 0 = no effect, 100 = complete control
Method in brief: as §2

soybean (Glycine max) [6] = test: as above; conditions: 10 days, 0 = no effect, 100 = complete control
Method in brief: as §2

corn (Zea mays) [7] = test: as above; conditions: 10 days, 0 = no effect, 100 = complete control
Method in brief: as §2

[8] = system: wheat (Triticum aestivum); test: as above; conditions: 10 days, 0 = no effect, 100 = complete control
Method in brief: as §2

[9] = system: ryegrass, Italian (italian ryegrass, Lolium multiflorum); test: as above; conditions: 10 days, 0 = no effect, 100 = complete control
Method in brief: as §2

[10] = system: green foxtail (Setaria viridis); test: as above; conditions: 10 days, 0 = no effect, 100 = complete control
Method in brief: as §2

[11] = system: blackgrass (Alopecurus myosuroides); test: as above; conditions: 10 days, 0 = no effect, 100 = complete control
Method in brief: as §2

kochia (Bassia scoparia) [12] = test: as above; conditions: 10 days, 0 = no effect, 100 = complete control
Method in brief: as §2

[13] = system: palmer (palmer amaranth, palmer pigweed, Amaranthus palmeri); test: as above; conditions: 10 days, 0 = no effect, 100 = complete control
Method in brief: as §2

[14] = system: ragweed (common ragweed, Ambrosia artemisiifolia); test: as above; conditions: 10 days, 0 = no effect, 100 = complete control
Method in brief: as §2

[15] = system: barnyardgrass (Echinochloa crus-galli); test: Test A postemergence application, visual injury rating 0-100; conditions: 10 days
Method in brief: as §2

[16] = system: oat, wild (wild oat, Avena fatua); test: as above; conditions: 10 days
Method in brief: as §2

soybean (Glycine max) [17] = test: as above; conditions: 10 days
Method in brief: as §2

corn (Zea mays) [18] = test: as above; conditions: 10 days
Method in brief: as §2

[19] = system: wheat (Triticum aestivum); test: as above; conditions: 10 days
Method in brief: as §2

[20] = system: ryegrass, Italian (italian ryegrass, Lolium multiflorum); test: as above; conditions: 10 days
Method in brief: as §2

[21] = system: green foxtail (Setaria viridis); test: as above; conditions: 10 days
Method in brief: as §2

[22] = system: blackgrass (Alopecurus myosuroides); test: as above; conditions: 10 days
Method in brief: as §2

[23] = system: horseweed (Erigeron canadensis); test: as above; conditions: 10 days
Method in brief: as §2

[24] = system: galium (catchweed bedstraw, Galium aparine); test: as above; conditions: 10 days
Method in brief: as §2

kochia (Bassia scoparia) [25] = test: as above; conditions: 10 days
Method in brief: as §2

[26] = system: palmer (palmer amaranth, palmer pigweed, Amaranthus palmeri); test: as above; conditions: 10 days
Method in brief: as §2

[27] = system: ragweed (common ragweed, Ambrosia artemisiifolia); test: as above; conditions: 10 days
Method in brief: as §2

[28] = 31 g ai/ha, postemergence, 0 = no effect, 100 = complete control
[29] = Postemergence, 125 g ai/ha, 0 is no effect, 100 is complete control

SMILES: CSCCOC(=O)C1=CCC(NC(=O)C2(C)CN(c3cc(F)cc(F)c3)C(=O)O2)C1 (stereo not shown) [Compound 23]
- Plant response rating, Ducksalad (0 to 100 scale, 0 is no effect and 100 is complete control) [1]: 70
- Plant response rating, Sedge, Umbrella (0 to 100 scale, 0 is no effect and 100 is complete control) [2]: 86
- Plant response rating, Barnyardgrass (0 to 100 scale, 0 is no effect and 100 is complete control) [3]: 95
- Plant response rating, Rice (0 to 100 scale, 0 is no effect and 100 is complete control) (rice (Oryza sativa)): 85
- Barnyardgrass plant response rating (0-100) ([4]; 31 g ai/ha): 60
- Barnyardgrass plant response rating (0 to 100 scale) ([4]; 125 g ai/ha): 100
- Oat, Wild plant response rating (0-100) ([5]; 31 g ai/ha): 20
- Oat, Wild plant response rating (0 to 100 scale) ([5]; 125 g ai/ha): 60
- Soybean plant response rating (0-100) (soybean (Glycine max) [6]; 31 g ai/ha): 10
- Soybean plant response rating (0 to 100 scale) (soybean (Glycine max) [6]; 125 g ai/ha): 70
- Corn plant response rating (0-100) (corn (Zea mays) [7]; 31 g ai/ha): 30
- Corn plant response rating (0 to 100 scale) (corn (Zea mays) [7]; 125 g ai/ha): 80
- Wheat plant response rating (0-100) ([8]; 31 g ai/ha): 80
- Wheat plant response rating (0 to 100 scale) ([8]; 125 g ai/ha): 90
- Ryegrass, Italian plant response rating (0-100) ([9]; 31 g ai/ha): 80
- Ryegrass, Italian plant response rating (0 to 100 scale) ([9]; 125 g ai/ha): 90
- Foxtail, Green plant response rating (0-100) ([10]; 31 g ai/ha): 70
- Foxtail, Green plant response rating (0 to 100 scale) ([10]; 125 g ai/ha): 100
- Blackgrass plant response rating (0-100) ([11]; 31 g ai/ha): 80
- Blackgrass plant response rating (0 to 100 scale) ([11]; 125 g ai/ha): 90
- Kochia plant response rating (0-100) (kochia (Bassia scoparia) [12]; 31 g ai/ha): 0
- Kochia plant response rating (0 to 100 scale) (kochia (Bassia scoparia) [12]; 125 g ai/ha): 90
- Amaranth, Palmer plant response rating (0-100) ([13]; 31 g ai/ha): 30
- Amaranth, Palmer plant response rating (0 to 100 scale) ([13]; 125 g ai/ha): 90
- Ragweed plant response rating (0-100) ([14]; 31 g ai/ha): 0
- Ragweed plant response rating (0 to 100 scale) ([14]; 125 g ai/ha): 70
- Barnyardgrass plant response rating (0-100) [15, 28]: 100
- Barnyardgrass plant response rating (0 to 100 scale) [15, 29]: 100
- Oat, Wild plant response rating (0-100) [16, 28]: 90
- Oat, Wild plant response rating (0 to 100 scale) [16, 29]: 100
- Soybean plant response rating (0-100) (soybean (Glycine max) [17]; [28]): 80
- Soybean plant response rating (0 to 100 scale) (soybean (Glycine max) [17]; [29]): 90
- Corn plant response rating (0-100) (corn (Zea mays) [18]; [28]): 100
- Corn plant response rating (0 to 100 scale) (corn (Zea mays) [18]; [29]): 100
- Wheat plant response rating (0-100) [19, 28]: 90
- Wheat plant response rating (0 to 100 scale) [19, 29]: 90
- Ryegrass, Italian plant response rating (0-100) [20, 28]: 80
- Ryegrass, Italian plant response rating (0 to 100 scale) [20, 29]: 70
- Foxtail, Green plant response rating (0-100) [21, 28]: 90
- Foxtail, Green plant response rating (0 to 100 scale) [21, 29]: 90
- Blackgrass plant response rating (0-100) [22, 28]: 90
- Blackgrass plant response rating (0 to 100 scale) [22, 29]: 100
- Horseweed plant response rating (0-100) [23, 28]: 80
- Horseweed plant response rating (0 to 100 scale) [23, 29]: 90
- Galium plant response rating (0-100) [24, 28]: 80
- Galium plant response rating (0 to 100 scale) [24, 29]: 90
- Kochia plant response rating (0-100) (kochia (Bassia scoparia) [25]; [28]): 80
- Kochia plant response rating (0 to 100 scale) (kochia (Bassia scoparia) [25]; [29]): 90
- Amaranth, Palmer plant response rating (0-100) [26, 28]: 80
- Amaranth, Palmer / Pigweed, Palmer plant response rating (0 to 100 scale) [26, 29]: 90
- Ragweed plant response rating (0-100) [27, 28]: 60
- Ragweed plant response rating (0 to 100 scale) [27, 29]: 70
